Test results reported in patent publication US8232407B2, “Nitrogenous heterocyclic compounds with insecticidal activity, and the preparation and use thereof” (East China University of Science and Technology, priority 2008, dated 2012).

Key:
Type in all cases: in vivo
Nilaparvata lugens = test: Insecticidal activities to plant hopper, spraying method; conditions: for Nilaparvata lugens Mortality (%) 500 ppm: in vivo
How it was run: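 Nilaparvata lugens, 10 insects per tumbler, sprayed with 2 ml compound in acetone at 0.79-500 ppm, three replicates, aqueous acetone control. Dead insects counted after 24 h; mortality corrected against control survival.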

Plutella xylostella = test: Insecticidal activities to diamondback moth, feeding dipped leaves; conditions: for Plutella xylostella Mortality (%) 500 ppm: in vivo
Method: (§1) Mortality (%)=(the number of the survival aphis in control group−the number of the survival aphis in the treatment group)/the number of the survival aphis in control group×100%
(4): Insecticidal Activities to Diamondback Moth
Diamondback moth (Plutella xylostella) was tested by the way of feeding dippedleaves. Fresh cabbage leaves were immersed in above mentioned solution for 3 seconds, dried at room temperature, and fed to the tested insects. Each treatment was tested with 10 insects and repeated for 3 tumblers (3 times), while water was used as control. The number of killed insects was counted after 24 hours to calculate the mortality according to the above mentioned formula.

[1] = test system: Pseudaletia separate Walker; test: Insecticidal activities to armyworm, leaf dipping and feeding
Method: as §1
(3): Insecticidal Activities to Armyworm
Armyworm (Pseudaletia separate Walker) was tested by the way of leaf dipping and feeding. The test compound was exactly formulated with acetone into solutions having concentrations of 500, 250, 100, 50, 25, 12.5, 6.25, 3.13 and 1.57 ppm, respectively. Aqueous acetone solution was used as control. Fresh maize leaves were immersed in the solution for 3 seconds, dried at room temperature, and fed to the tested insects. Each treatment was tested with 10 insects and repeated for 3 tumblers (3 times). The number of killed insects was counted after 24 hours to calculate the mortality according to the above mentioned formula.

Aphis craccivoral = test: Insecticidal activities to aphids, immersion method; conditions: for Aphis craccivoral Mortality (%) 500 ppm: in vivo
How it was run: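 Wingless adult aphids feeding on bean sprouts were dipped 5 s in 500 ppm compound (DMF stock diluted in 0.2 mL/L aqueous Triton X-100), blotted and held at 23° C. Dead counted at 24 h, three replicates; mortality corrected against Triton-only controls.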

Row | Compound | Nilaparvata lugens Mortality (%) 500 ppm (Nilaparvata lugens) [%] | Plutella xylostella Mortality (%) 500 ppm (Plutella xylostella) [%] | Pseudaletia separate Walker Mortality (%) 500 ppm ([1]; in vivo) [%] | Aphis craccivoral Mortality (%) 500 ppm (Aphis craccivoral) [%] | mortality at 500 ppm (Nilaparvata lugens; Nilaparvata lugens, 24 h, read-out: Nilaparvata lugens Mortality (%) 500 ppm) [%] | mortality at 500 ppm (Plutella xylostella; Plutella xylostella, 24 h, read-out: Plutella xylostella Mortality (%) 500 ppm) [%] | Pseudaletia separate Walker Mortality (%) 500 ppm ([1]; 500 ppm, leaf dipping and feeding, counted after 24 hours) [%] | mortality at 500 ppm (Aphis craccivoral; Aphis, read-out: Aphis craccivoral Mortality (%) 500 ppm) [%]
1 | CC(=C(C1=NCCN1C(C)c1ccc(Cl)nc1)[N+](=O)[O-])c1ccc(Br)o1 (racemic) [Compound 137] | 100 | 100 | 100 | 98 |  |  |  | 
2 | C[N+]1=C(C(=Cc2ccsc2)[N+](=O)[O-])N(Cc2cnc(Cl)s2)CC1.[Cl-] [Compound 281] | 100 | 100 | 100 | 100 |  |  |  | 
3 | CCc1ccc(C=C(C2=NCCN2Cc2cnc(Cl)s2)[N+](=O)[O-])o1 [Compound 81] | 100 | 100 | 100 | 100 |  |  |  | 
4 | CC(c1ccc(Cl)nc1)N1CCN=C1C(=Cc1ccoc1)[N+](=O)[O-] (racemic) [Compound 123] | 100 | 100 | 100 | 100 |  |  |  | 
5 | O=[N+]([O-])C(=Cc1ccc([N+](=O)[O-])s1)C1=NCCN1Cc1cnc(Cl)s1 [Compound 85] | 100 | 100 | 100 | 100 |  |  |  | 
6 | N#CC(=Cc1ccoc1)C1=NCCN1Cc1ccc(Cl)nc1 [Compound 141] | 100 | 100 | 100 | 100 |  |  |  | 
7 | Cc1csc(C=C(C2=[N+](C)CCN2Cc2ccc(Cl)nc2)[N+](=O)[O-])c1.[Cl-] [Compound 271] | 100 | 100 | 100 | 100 |  |  |  | 
8 | N#CC(=Cc1cc(Br)cs1)C1=NCCN1Cc1ccc(Cl)nc1 [Compound 148] | 100 | 100 | 100 | 97 |  |  |  | 
9 | C[N+]1=C(C(=Cc2ccc(Br)o2)[N+](=O)[O-])N(Cc2cnc(Cl)s2)CC1.[Cl-] [Compound 279] | 100 | 100 | 100 | 100 |  |  |  | 
10 | CC(=C(C1=NCCN1C(C)c1ccc(Cl)nc1)[N+](=O)[O-])c1ccc([N+](=O)[O-])o1 (racemic) [Compound 135] | 63 | 56 | 45 | 56 |  |  |  | 
11 | O=[N+]([O-])C(=Cc1cc(Br)cs1)C1=NCCN1Cc1cnc(Cl)s1 [Compound 89] | 100 | 100 | 97 | 100 |  |  |  | 
12 | C[N+]1=C(C(=Cc2cc(Cl)c(Cl)o2)[N+](=O)[O-])N(Cc2ccc(Cl)nc2)CC1.[Cl-] [Compound 251] | 100 | 100 | 100 | 100 |  |  |  | 
13 | Cc1ccc(C=C(C2=[N+](C)CCN2Cc2ccc(Cl)nc2)[N+](=O)[O-])o1.[Cl-] [Compound 255] | 100 | 100 | 100 | 100 |  |  |  | 
14 | O=[N+]([O-])C(=Cc1sc(Br)cc1Br)C1=NCCN1Cc1ccc(Cl)nc1 [Compound 26] | 100 | 100 | 100 | 100 |  |  |  | 
15 | O=[N+]([O-])C(=Cc1ccc(Cl)o1)C1=NCCN1Cc1cnc(Cl)s1 [Compound 71] | 100 | 100 | 100 | 100 |  |  |  | 
16 | C[N+]1=C(C(=Cc2ccc(Cl)o2)[N+](=O)[O-])N(Cc2cnc(Cl)s2)CC1.[Cl-] [Compound 278] | 100 | 100 | 100 | 100 |  |  |  | 
17 | Cc1ccc(C=C(C2=NCCN2Cc2ccc(Cl)nc2)[N+](=O)[O-])cn1 [Compound 42] | 36 | 90. | 87 | 45 |  |  |  | 
18 | CC(=C(C1=NCCN1C(C)c1ccc(Cl)nc1)[N+](=O)[O-])c1cccs1 (racemic) [Compound 138] | 100 | 100 | 100 | 100 |  |  |  | 
19 | O=[N+]([O-])C(=Cc1oc(Br)cc1Br)C1=NCCN1Cc1ccc(Cl)nc1 [Compound 11] | 100 | 100 | 100 | 100 |  |  |  | 
20 | O=[N+]([O-])C(=Cc1oc(Cl)cc1Cl)C1=NCCN1CC1CCOC1 (centres unmarked) [Compound 99] | 97 | 100 | 100 | 87 |  |  |  | 
21 | O=[N+]([O-])C(=Cc1cc(Cl)cs1)C1=NCCCN1Cc1ccc(Cl)nc1 [Compound 66] | 87 | 100 | 87 | 56 |  |  |  | 
22 | Cc1csc(C=C(C2=NCCN2Cc2ccc(Cl)nc2)[N+](=O)[O-])c1 [Compound 28] | 100 | 100 | 100 | 100 |  |  |  | 
23 | C[N+]1=C(C(=Cc2cccs2)[N+](=O)[O-])N(Cc2ccc(Cl)nc2)CC1.[Cl-] [Compound 259] | 100 | 100 | 100 | 100 |  |  |  | 
24 | O=[N+]([O-])C(=Cc1cc(Cl)c(Cl)o1)C1=NCCCN1Cc1ccc(Cl)nc1 [Compound 53] | 100 | 100 | 100 | 100 |  |  |  | 
25 | C[N+]1=C(C(=Cc2cc(Br)cs2)[N+](=O)[O-])N(Cc2ccc(Cl)nc2)CC1.[Cl-] [Compound 265] | 100 | 100 | 100 | 100 |  |  |  | 
26 | O=[N+]([O-])/C(=C/c1ccc([N+](=O)[O-])o1)C1=NCCN1Cc1cnc(Cl)s1 [Compound 70] |  |  |  |  | 100 | 100 | 98 | 100
